The values that follow come from patent publication US12649750B2, “Macrocyclic compounds, compositions, and methods of using thereof” (Sionna Therapeutics Inc., priority 2022, dated 2026).

Structures are written as SMILES.

For one assay, the target named is T1, NBD1 (Homo sapiens, UniProt P13569).
T1 construct: Purified recombinant NBD1 was produced using previously described methods; made in house
Put plainly: Aggregation analysis using differential static light scattering (DSLS), thermal stability of NBD1 (ΔTagg). The format is binding. The note with it: ΔTagg versus DMSO control, NBD1 0.2 mg/ml. A digest of the protocol: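 Read-out is ΔTagg: the aggregation temperature, taken at the inflection of the light-scattering curve, less the average of DMSO control wells. Recombinant NBD1 (0.2 mg/ml, pH7.6 buffer containing 2 mM ATP) with test compound was heated at 1° C. per minute up to 70° C.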

The target in another assay is T2, CFTR (Homo sapiens, UniProt P13569, DEL508-508).
T2 construct: Primary human bronchial epithelial cells from a ΔF508 homozygous CF donor; host or cells: primary human bronchial epithelial cells (CF-HBE), ΔF508 homozygous donor
T2 sequence (P13569 with tags, fused parts or gaps DEL508-508): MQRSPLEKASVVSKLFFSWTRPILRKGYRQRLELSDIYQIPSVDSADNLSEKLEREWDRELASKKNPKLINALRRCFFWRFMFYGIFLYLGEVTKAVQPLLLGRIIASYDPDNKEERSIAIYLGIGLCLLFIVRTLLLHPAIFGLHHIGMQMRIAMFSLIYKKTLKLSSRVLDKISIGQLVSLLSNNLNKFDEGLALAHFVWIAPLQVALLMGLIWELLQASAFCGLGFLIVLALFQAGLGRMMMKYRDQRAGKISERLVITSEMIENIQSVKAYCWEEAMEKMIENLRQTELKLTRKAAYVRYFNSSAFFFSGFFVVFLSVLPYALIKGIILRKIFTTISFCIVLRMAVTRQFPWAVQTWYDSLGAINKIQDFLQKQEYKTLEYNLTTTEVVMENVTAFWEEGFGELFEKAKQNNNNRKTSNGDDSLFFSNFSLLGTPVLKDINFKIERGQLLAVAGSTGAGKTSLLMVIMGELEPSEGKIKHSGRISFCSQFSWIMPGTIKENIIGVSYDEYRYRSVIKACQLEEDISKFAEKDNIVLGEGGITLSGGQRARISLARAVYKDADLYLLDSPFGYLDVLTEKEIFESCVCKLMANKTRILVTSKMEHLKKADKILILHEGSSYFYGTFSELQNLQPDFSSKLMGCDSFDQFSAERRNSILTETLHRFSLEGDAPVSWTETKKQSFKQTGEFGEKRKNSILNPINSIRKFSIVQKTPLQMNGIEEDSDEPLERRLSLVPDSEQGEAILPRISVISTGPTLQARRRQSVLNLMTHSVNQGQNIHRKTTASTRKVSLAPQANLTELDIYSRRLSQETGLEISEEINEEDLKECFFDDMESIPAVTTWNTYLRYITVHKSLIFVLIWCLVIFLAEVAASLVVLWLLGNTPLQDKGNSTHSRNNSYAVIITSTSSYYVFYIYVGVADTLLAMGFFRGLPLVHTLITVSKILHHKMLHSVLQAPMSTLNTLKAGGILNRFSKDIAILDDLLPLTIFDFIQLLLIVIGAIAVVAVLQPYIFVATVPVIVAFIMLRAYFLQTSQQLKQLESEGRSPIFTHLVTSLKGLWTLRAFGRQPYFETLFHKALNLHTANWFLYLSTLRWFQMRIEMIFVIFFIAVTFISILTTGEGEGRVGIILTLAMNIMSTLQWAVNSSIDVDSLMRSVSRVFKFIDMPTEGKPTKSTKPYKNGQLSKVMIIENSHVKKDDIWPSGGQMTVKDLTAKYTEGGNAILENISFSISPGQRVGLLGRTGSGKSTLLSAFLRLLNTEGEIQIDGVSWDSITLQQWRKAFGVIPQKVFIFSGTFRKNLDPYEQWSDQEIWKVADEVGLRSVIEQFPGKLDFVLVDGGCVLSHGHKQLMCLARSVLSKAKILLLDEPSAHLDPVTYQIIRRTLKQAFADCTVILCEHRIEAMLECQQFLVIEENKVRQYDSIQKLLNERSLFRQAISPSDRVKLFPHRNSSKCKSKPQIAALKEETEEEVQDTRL
The assay is described as follows: TECC24 AUC fold over DMSO @10 μM, CFTR-mediated transepithelial chloride transport in CF-HBE cells. It counts as cell-based. Conditions: test agent AUC divided by DMSO vehicle AUC, primary CF-HBE cells, ΔF508 homozygous donor, 48 hours incubation. A digest of the protocol: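 ΔF508-homozygous primary bronchial epithelial cells incubated 48 h at 36.5° C with compound (10 μM) in IL-13-containing medium, then TECC24 current-clamp recording in pH 7.4 Hepes saline with benzamil 10 μM, forskolin 10 μM, then CFTR inhibitor-172 20 μM. Equivalent Cl− current AUC between forskolin and inhibitor, expressed as fold over DMSO.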

T1 sequence (P13569 423-646 limits assumed): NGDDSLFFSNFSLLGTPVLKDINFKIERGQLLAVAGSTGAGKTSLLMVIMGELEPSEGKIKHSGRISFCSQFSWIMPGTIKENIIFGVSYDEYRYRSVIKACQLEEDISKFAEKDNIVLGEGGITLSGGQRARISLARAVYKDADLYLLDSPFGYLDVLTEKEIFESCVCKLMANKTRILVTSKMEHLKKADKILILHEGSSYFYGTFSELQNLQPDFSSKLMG

With `COCC(Cc1cccc(C2(C)CCCC(C)(C)CS(=O)(=O)CCc3c(c(F)cc4[nH]ccc34)Oc3ccc(F)c(c3)-c3nc2nn3C)c1)C(=O)O` (single isomer, unassigned) [Compound 153C, 2-[[3-(22,28-difluoro-3,6,10,10-tetramethyl-12,12-dioxo-24-oxa-12λ6-thia-3,4,19,30-tetrazapentacyclo[23.3.1.12,5.015,23.016,20]triaconta-1(29),2(30),4,15,17,20,22,25,27-nonaen-6-yl)phenyl]methyl]-3-methoxy-propanoic Acid], the “DSLS 3D (100 μM ΔT)” value on NBD1 is “A (an ΔTagg value less than or equal to 5 °C is marked “A”)”. Also, the “TECC (AUC, 10 μM)” value at CFTR was “A (a TECC value less than 12 is marked “A”)”.

In the case of `C[C@H](Cc1cccc(C2(C)CCCC(C)(C)CS(=O)(=O)CCc3c(c(F)cc4[nH]ccc34)C(=O)c3ccc(F)c(c3)-c3nc2nn3C)c1)C(=O)O` (single isomer, unassigned) [Compound 126A], the “DSLS 3D (100 μM ΔT)” value at NBD1 is “C (a value greater than 10 °C and less than or equal to 25 °C is marked “C”)”. Besides, the “TECC (AUC, 10 μM)” value at CFTR is “B (a value between 12-20 is marked “B”)”.

Take `Cn1nc2nc1-c1cc(ccc1F)C(O)c1c(F)cc3[nH]ccc3c1CCS(=O)(=O)CC(C)(C)CCCC2(C)c1cccc(CCC(=O)O)c1` (single isomer, unassigned) [Compound 30D, 3-[3-(22,28-difluoro-24-hydroxy-3,6,10,10-tetramethyl-12,12-dioxo-12lambda6-thia-3,4,19,30-tetrazapentacyclo[23.3.1.12,5.015,23.016,20]triaconta-1(29),2(30),4,15,17,20,22,25,27-nonaen-6-yl)phenyl]propanoic acid]: the “DSLS 3D (100 μM ΔT)” value at NBD1 is “C (a value greater than 10 °C and less than or equal to 25 °C is marked “C”)”. Moreover, the “TECC (AUC, 10 μM)” value at CFTR is “A (a TECC value less than 12 is marked “A”)”.

Take `C[C@H](Cc1cccc([C@@]2(C)CCCC(C)(C)CS(=O)(=O)CCc3c(c(F)cc4[nH]ccc34)Oc3ccnc(c3)-c3nc2nn3C)c1)C(=O)O` [Compound 197, (2R)-3-[3-[(6R)-22-Fluoro-3,6,10,10-tetramethyl-12,12-dioxo-24-oxa-12λ6-thia-3,4,19,28,30-pentazapentacyclo[23.3.1.12,5.015,23.016,20]triaconta-1(29),2(30),4,15,17,20,22,25,27-nonaen-6-yl]phenyl]-2-methyl-propanoic Acid]: the “DSLS 3D (100 μM ΔT)” value at NBD1 was “C (a value greater than 10 °C and less than or equal to 25 °C is marked “C”)”. The “TECC (AUC, 10 μM)” value at CFTR was “C (a value between 20 and 80 is marked “C”)”.

Consider `Cn1nc2nc1-c1cc(ccc1F)[S+]([O-])c1c(F)cc3[nH]ccc3c1CCS(=O)(=O)CC(C)(C)CCC[C@]2(C)c1cccc([C@@H](O)CO)c1` (single isomer, unassigned) [Compound 236B], for which the “DSLS 3D (100 μM ΔT)” value on NBD1 is “C (a value greater than 10 °C and less than or equal to 25 °C is marked “C”)”. Besides, the “TECC (AUC, 10 μM)” value on CFTR is “C (a value between 20 and 80 is marked “C”)”.

`Cn1nc2nc1-c1cccc(c1)Oc1c(F)cc3[nH]ccc3c1CCS(=O)(=O)CC(C)(C)CCCC2(C)c1cccc(CCC(=O)O)c1` (single isomer, unassigned) [Compound 95A, 3-[3-(22-fluoro-3,6,10,10-tetramethyl-12,12-dioxo-24-oxa-12λ6-thia-3,4,19,30-tetrazapentacyclo[23.3.1.12,5.015,23.016,20]triaconta-1(29),2(30),4,15,17,20,22,25,27-nonaen-6-yl)phenyl]propanoic Acid]: at NBD1, the “DSLS 3D (100 μM ΔT)” value was “A (an ΔTagg value less than or equal to 5 °C is marked “A”)”. Besides, the “TECC (AUC, 10 μM)” value on CFTR was “A (a TECC value less than 12 is marked “A”)”.

As for `CCOC(=O)CCc1cccc(C2CCS(=O)(=O)CCS(=O)(=O)CCc3c(c(F)cc4[nH]ccc34)Oc3ccc(F)c(c3)-c3ccn2n3)c1` (stereo not drawn) [Compound 92, Ethyl 3-[3-(22,28-difluoro-9,9,12,12-tetraoxo-24-oxa-9lambda6,12lambda6-dithia-5,19,30-triazapentacyclo[23.3.1.12,5.015,23.016,20]triaconta-1(29),2(30),3,15,17,20,22,25,27-nonaen-6-yl)phenyl]propanoate], the “DSLS 3D (100 μM ΔT)” value at NBD1 is “A (an ΔTagg value less than or equal to 5 °C is marked “A”)”. Moreover, on CFTR, the “TECC (AUC, 10 μM)” value is recorded as “A (a TECC value less than 12 is marked “A”)”.

Turning to `C[C@H](O)Cc1cccc([C@@]2(C)CCCC(C)(C)CS(=O)(=O)CCc3c(c(F)cc4[nH]ccc34)[S+]([O-])c3ccc(F)c(c3)-c3nc2nn3C)c1` (single isomer, unassigned) [Compound 237A], the “DSLS 3D (100 μM ΔT)” value on NBD1 is “A (an ΔTagg value less than or equal to 5 °C is marked “A”)”. The “TECC (AUC, 10 μM)” value on CFTR was “C (a value between 20 and 80 is marked “C”)”.

Regarding `Cn1nc2nc1-c1cc(ccc1F)Oc1c(F)cc3[nH]ccc3c1CCS(=O)(=O)CC(C)(C)CCCC2(C)c1cccc(CC2CC(=O)NC2=O)c1` (single isomer, unassigned) [Compound 196A, 3-[[3-(22,28-difluoro-3,6,10,10-tetramethyl-12,12-dioxo-24-oxa-12λ6-thia-3,4,19,30-tetrazapentacyclo[23.3.1.12,5.015,23.016,20]triaconta-1(29),2(30),4,15,17,20,22,25,27-nonaen-6-yl)phenyl]methyl]pyrrolidine-2,5-dione], the “DSLS 3D (100 μM ΔT)” value on NBD1 is “C (a value greater than 10 °C and less than or equal to 25 °C is marked “C”)”. Further, on CFTR, the “TECC (AUC, 10 μM)” value was “A (a TECC value less than 12 is marked “A”)”.

As for `Cn1nc2nc1-c1cc(ccn1)Sc1c(F)cc3[nH]ccc3c1CCS(=O)(=O)CC(C)(C)CCC[C@]2(C)c1cccc(CC(=O)O)c1` [Compound 251, 2-[3-[(6R)-22-Fluoro-3,6,10,10-tetramethyl-12,12-dioxo-12λ6,24-dithia-3,4,19,28,30-pentazapentacyclo[23.3.1.12,5.015,23.016,20]triaconta-1(29),2(30),4,15,17,20,22,25,27-nonaen-6-yl]phenyl]acetic Acid], the “DSLS 3D (100 μM ΔT)” value on NBD1 is “C (a value greater than 10 °C and less than or equal to 25 °C is marked “C”)”. Further, the “TECC (AUC, 10 μM)” value at CFTR is “B (a value between 12-20 is marked “B”)”.

Turning to `Cn1nc2nc1-c1cc(ccc1F)Sc1c(F)c(F)c3[nH]ccc3c1CCS(=O)(=O)CC(C)(C)CCC[C@]2(C)c1cccc(CC(C)(C)C(=O)O)c1` [Compound 279, 2,2-Dimethyl-3-[3-[(6R)-21,22,28-trifluoro-3,6,10,10-tetramethyl-12,12-dioxo-12λ6,24-dithia-3,4,19,30-tetrazapentacyclo[23.3.1.12,5.015,23.016,20]triaconta-1(29),2(30),4,15,17,20,22,25,27-nonaen-6-yl]phenyl]propanoic Acid], the “DSLS 3D (100 μM ΔT)” value at NBD1 is “C (a value greater than 10 °C and less than or equal to 25 °C is marked “C”)”. Further, the “TECC (AUC, 10 μM)” value on CFTR is “C (a value between 20 and 80 is marked “C”)”.

As to `Cn1nc2nc1-c1cc(ccc1F)Oc1c(F)cc3[nH]ccc3c1CCS(=O)(=O)CCCCOC2c1cccc(CCC(=O)O)c1` (stereo not drawn) [Compound 297, 3-[3-(22,28-Difluoro-3-methyl-12,12-dioxo-7,24-dioxa-12λ6-thia-3,4,19,30-tetrazapentacyclo[23.3.1.12,5.015,23.016,20]triaconta-1(29),2(30),4,15(23),16(20),17,21,25,27-nonaen-6-yl)phenyl]propanoic Acid], the “DSLS 3D (100 μM ΔT)” value on NBD1 is “B (a value above 5 °C and less than or equal to 10 °C is marked “B”)”. Also, the “TECC (AUC, 10 μM)” value on CFTR is “A (a TECC value less than 12 is marked “A”)”.

For `Cn1nc2nc1-c1cc(ccc1F)[S+]([O-])c1c(F)cc3[nH]ccc3c1CCS(=O)(=O)CC(C)(C)CCC[C@]2(C)c1cccc(CCS(C)(=O)=O)c1` (single isomer, unassigned) [Compound 220B], the “DSLS 3D (100 μM ΔT)” value on NBD1 was “C (a value greater than 10 °C and less than or equal to 25 °C is marked “C”)”. Besides, the “TECC (AUC, 10 μM)” value on CFTR was “C (a value between 20 and 80 is marked “C”)”.

Take `Cn1nc2nc1-c1cc(ccc1F)Oc1c(F)cc3[nH]ccc3c1CCS(=O)(=O)CC1(CCCC2(C)c2cccc(CCC(=O)O)c2)CC1` (single isomer, unassigned) [Compound 12B, 3-[3-(22,28-difluoro-3,6-dimethyl-12,12-dioxo-spiro[24-oxa-12lambda6-thia-3,4,19,30-tetrazapentacyclo[23.3.1.12,5.015,23.016,20]triaconta-1(29),2(30),4,15,17,20,22,25,27-nonaene-10,1′-cyclopropane]-6-yl)phenyl]propanoic acid]: the “DSLS 3D (100 μM ΔT)” value at NBD1 is “A (an ΔTagg value less than or equal to 5 °C is marked “A”)”. The “TECC (AUC, 10 μM)” value on CFTR is “C (a value between 20 and 80 is marked “C”)”.

As for `C[C@@H](Cc1cccc([C@@]2(C)CCCC(C)(C)CS(=O)(=O)CCc3c(c(F)cc4[nH]ccc34)Oc3ccc(F)c(c3)-c3nc2nn3C)c1)C(=O)O` (single isomer, unassigned) [Compound 7], the “DSLS 3D (100 μM ΔT)” value at NBD1 is “C (a value greater than 10 °C and less than or equal to 25 °C is marked “C”)”. For the same compound, the “TECC (AUC, 10 μM)” value at CFTR is given as “B (a value between 12-20 is marked “B”)”.
